The values below come from PMC12736018, “Stereoselective Cytotoxicity of Enantiopure 3,3-Dichloro-γ-lactams: Correlating In Vitro Activity with In Vivo Tolerability” (Molecules, 2025).

Converted amounts (≈) assume the structure as drawn.

By IC50 is commonly meant the concentration needed to halve the response being measured. The LC50 is the concentration lethal to half of the exposed cells or organisms. One may read the viability as a per cent measure of how many cells are alive, often set against a control. Read a high viability as less harm to the cells.

The subject of one data set is 3T3 fibroblasts. Details: method as in PMID 40283925. Conditions: normal 3T3 fibroblasts, racemic form; cited from earlier work.
The test system of a further data set is A431 tumor cells. Details: method as in PMID 40283925. To be noted: racemic form; cited from earlier work.
A further data set deals with zebrafish. Details: method as in PMID 40283925. To be noted: tested previously in zebrafish; cited from earlier work.
Data set [1] deals with MCF-7 cells. The experiment in a line: NRU cell viability assay, MCF-7. In kind it is cell-based, human. To be noted: Homo sapiens, MCF7; MCF-7, NRU, 24 h. The protocol:
(§1) The murine Swiss albino fibroblast (3T3), the immortal human keratinocyte (HaCaT), the squamous cell carcinoma (A431), the human epithelial carcinoma (HeLa) and the human breast adenocarcinoma (MCF-7) cell lines were sourced from Celltec UB (Barcelona, Spain). All cells were maintained and grown in DMEM medium (4.5 g/L glucose) supplemented with 10% (v/v) FBS, 2 mM L-glutamine, 100 U/mL penicillin and 100 μg/mL streptomycin at 37 °C, 5% CO2. Cells were routinely cultured in 75 cm^2 culture flasks and were trypsinized using trypsin-EDTA when the cells reached approximately 80%. Cell concentration in the resulting suspension was assessed using the trypan blue assay, which enables direct discrimination between viable (unstained) and non-viable (blue) cells.
(§2) T3 and HaCaT cells (1 × 10^5 cells/mL), along with A431, HeLa, and MCF-7 cells (5 × 10^4 cells/mL), were cultured at defined seeding densities in the 60 central wells of a 96-well plate. Cells were first incubated for 24 h under standard incubator conditions (5% CO2, 37 °C). After this period, the culture medium was removed, and the cells were incubated for an additional 24 h with their corresponding compound solutions (1 mg/mL) previously diluted in a minimum amount of DMF (dimethylformamide) and then in DMEM medium supplemented with 5% FBS (100 µL) at the required concentration range (20 to 250 µg/mL). Cell viability following exposure to the lactam derivatives was evaluated using two complementary assays: NRU and MTT.
(§3) The neutral red uptake (NRU) assay is based on the accumulation of dye in the lysosomes of viable cells. After the cells were incubated for 24 h with the corresponding systems, the medium was removed, and the solutions were incubated with the NR dye (Sigma-Aldrich, St. Louis, MO, USA) solution (50 µg/mL) dissolved in the medium, without FBS and without phenol red (Lonza, Verviers, Belgium), for 3 h. Cells were then washed with sterile PBS, followed by the addition of 100 µL of a solution containing 50% absolute ethanol and 1% acetic acid in distilled water to extract the dye. To promote the total dissolution of the dye, plates were placed in a microtiter-plate shaker for 5 min at room temperature. The absorbance of the resulting solutions was measured at 550 nm (Bio-Rad 550 microplate reader, Bio-Rad California, Hercules, CA, USA). Finally, the effect of each treatment was calculated as the percentage of dye uptake by viable cells relative to the control cells (cells without any treatment). Finally, the effect of each treatment was calculated as the percentage of dye retained by viable cells compared with untreated control cells.
(§4) The half-maximal inhibitory concentration (IC50) values for the different formulations, across cell lines and experimental endpoints, were obtained by fitting the concentration-dependent viability curves. […] These findings reflect the very low cytotoxicity of the compounds toward these cell lines.

Data set [2] has as its system MCF-7 cells. The experiment in a line: MTT cell viability assay, MCF-7. It is filed as cell-based. Conditions: Homo sapiens, MCF7; MCF-7, MTT, 24 h. The protocol:
as §1, §2
(§5) Only living cells can reduce the yellow tetrazolium salt 3-(4,5-dimethyl-2-thiazolyl)-2,5-diphenyltetrazolium bromide (MTT) to insoluble purple formazan crystals. After a 24 h incubation of the cells with their corresponding NPs, the medium was removed and 100 µL of MTT (Sigma-Aldrich, St. Louis, MO, USA) in PBS (5 mg/mL) diluted 1:10 in culture medium without phenol red and without FBS (Lonza, Verviers, Belgium) was added to the cells. After 3 h of incubation, the medium was removed. Thereafter, 100 µL of DMSO (Sigma-Aldrich, St. Louis, MO, USA) was added to each well to dissolve the purple formazan crystals. Agitation and absorbance measurements of the extracted solution were carried out under the same conditions described for the NRU assay. The effect of each treatment was then expressed as the percentage of tetrazolium salt reduction by viable cells relative to untreated controls.
as §4

In data set [3] the test system is A431 cells. The experiment in a line: MTT cell viability assay, A431. It is filed as cell-based. Conditions: Homo sapiens, A-431, 24 h. The protocol: as §1, §2, §5, §4
Data set [4] deals with HeLa cells. The experiment in a line: NRU cell viability assay, HeLa. It is filed as cell-based, human. To be noted: Homo sapiens, 24 h. The protocol: as §1, §2, §3, §4
The subject of data set [5] is 3T3 cells. Kind of data set: NRU cell viability assay, 3T3. It is filed as cell-based. Conditions: Mus musculus, NIH3T3; 3T3, NRU, 24 h. The protocol:
as §1, §2
as §3, with “[…]” for “control cells.”

A further data set can be described thus: Hemolysis assay. To be noted: human, human erythrocyte suspension, pH 7.4, 10 and 80 µg/mL. It is filed as cell-based. The protocol:
Human blood samples were obtained from the Banc de Sang i Teixits de Barcelona (Barcelona, Spain) under the Catalan Department of Health. Blood was collected in tubes containing the anticoagulant EDTA-K3. Samples were centrifuged at 3000 rpm and 4 °C for 10 min (Megafuge 2.0 R, Heraeus Instruments, Hanau, Germany) to promote sedimentation, after which plasma was carefully eliminated using a Pasteur pipette. The remaining pellet was washed with PBS (pH 7.4) three times to remove residual leukocytes and platelets while concentrating erythrocytes. After the final wash, the erythrocyte pellet was resuspended in PBS (pH 7.4) at a 1:1 ratio to achieve a final erythrocyte concentration of 8 × 10^9 cells/mL.
The hemolysis assay is used to evaluate the ability of the tested compounds to disrupt erythrocyte membranes. Stock solutions of each compound were prepared in PBS (pH 7.4) at a concentration of 1 mg/mL. Volumes ranging from 10 to 80 μL were transferred into polystyrene tubes, followed by the addition of 25 µL of the erythrocyte suspension, bringing the total volume to 1 mL. The samples were incubated at room temperature under gentle rotation and subsequently centrifuged at 10,000 rpm for 5 min. The absorbance of the resulting supernatants at 540 nm (Shimadzu UV-160A, Shimadzu, Duisburg, Germany) was measured and compared with that of the positive control (erythrocytes hemolyzed with distilled water) and the negative control (erythrocytes suspension in PBS, pH 7.4).
The degree of hemolysis was determined using the following equation:Hemolysis (%) = 100 × (Abs − Abs0)/(Abs100 − Abs0) where Abs, Abs0 and Abs100 are the absorbance of the test samples, of the suspension treated with isotonic phosphate–buffered saline (PBS) and of the suspension of complete hemolysis treated with distilled water, respectively.

Data set [6] relates to 3T3 cells. Kind of data set: MTT cell viability assay, 3T3. It is filed as cell-based. Conditions: Mus musculus, NIH3T3; 3T3, MTT, 24 h. The protocol:
as §1, §2, §5, §4
(In general: Formazan colour is commonly taken as a measure of viable cells.)

Data set [7] concerns HeLa cells. Kind of data set: MTT cell viability assay, HeLa. It is filed as cell-based. To be noted: Homo sapiens, 24 h. The protocol: as §1, §2, §5, §4
The subject of data set [8] is HaCaT cells. The experiment in a line: NRU cell viability assay, HaCaT. In kind it is cell-based. Conditions: Homo sapiens, 24 h. The protocol:
as §1, §2
as §3, with “[…]” for “control cells.”

Data set [9] deals with 3T3, HaCaT, A431, HeLa and MCF-7 cells. The experiment in a line: Cell viability assays (MTT and NRU), summary across the cell panel. In kind it is cell-based. Conditions: for IC50: MTT and NRU, summary statement over cell lines. The protocol: as §1, §2
as §3, with “Cells were then washed with sterile PBS, followed by the addition of 100 µL of a solution containing 50% absolute ethanol and 1% acetic acid in distilled water to extract the dye. To promote the total dissolution of the dye, plates were placed in a microtiter-plate shaker for 5 min at room temperature.” left out
(§6) Only living cells can reduce the yellow tetrazolium salt 3-(4,5-dimethyl-2-thiazolyl)-2,5-diphenyltetrazolium bromide (MTT) to insoluble purple formazan crystals. […] Agitation and absorbance measurements of the extracted solution were carried out under the same conditions described for the NRU assay. The effect of each treatment was then expressed as the percentage of tetrazolium salt reduction by viable cells relative to untreated controls. […]

Test in data set [10]: as above
In kind it is cell-based. Conditions: MTT, most cell lines, highest tested concentration. The protocol: as §1, §2
as §3, with “Cells were then washed with sterile PBS, followed by the addition of 100 µL of a solution containing 50% absolute ethanol and 1% acetic acid in distilled water to extract the dye. To promote the total dissolution of the dye, plates were placed in a microtiter-plate shaker for 5 min at room temperature.” left out
as §6

Data set [11] has as its system HaCaT cells. The experiment in a line: MTT cell viability assay, HaCaT. It is filed as cell-based. To be noted: Homo sapiens, 24 h. The protocol: as §1, §2, §5, §4
The subject of data set [12] is A431 cells. Kind of data set: NRU cell viability assay, A431. In kind it is cell-based, human. Conditions: Homo sapiens, A-431, 24 h. The protocol:
as §1, §2, §3, §4

In another data set the test system is different cell lines. More on the design: method as in PMID 38731527. Conditions: across different cell lines, racemic form; cited from earlier work.

`CC(C)(C)N1C(=O)C(Cl)(Cl)C1c1ccccc1` (stereo not drawn) [β-lactam 1]: the IC50 with 3T3 fibroblasts was more than 210 µg/mL; in the data set with A431 tumor cells, 35 to 71 µg/mL. Also, the LC50 with zebrafish is recorded as 14.9 µg/mL (≈ 54.7 µM).

Regarding `C[C@@H](c1ccccc1)N1C[C@H](C)C(Cl)(Cl)C1=O` [epi-3], the IC50 is more than 250 µg/mL with MCF-7 cells [1]; more than 250 µg/mL in the data set with MCF-7 cells [2]; 170 µg/mL (≈ 624 µM) in the data set on A431 cells [3]; 214 µg/mL (≈ 786 µM) in the data set on HeLa cells [4]; 77.2 µg/mL (≈ 284 µM) with 3T3 cells [5]; 68.1 µg/mL (≈ 250 µM) with 3T3 cells [6]. Besides, the IC50 with HeLa cells [7] was more than 250 µg/mL; in the data set with HaCaT cells [8], more than 250 µg/mL; in data set [9] it was more than 68 µg/mL; in the data set on HaCaT cells [11], more than 250 µg/mL; in the data set with A431 cells [12], 123 µg/mL (≈ 452 µM). For the same molecule, the hemolysis in “Hemolysis assay” was less than 2%. In addition, the cell survival result in data set [9] (NRU, several lines, 250 µg/mL) was “around 60%”. In [10], this molecule displayed a viability at 24 h, 250 µg/mL not below 80%.

Take `CC(C)(C)N1CC(CCl)C(Cl)(Cl)C1=O` (stereo not drawn) [compound 2]: in the data set on different cell lines, the IC50 was 100 to 250 µg/mL.

For `C[C@H](c1ccccc1)N1C[C@@H](C)C(Cl)(Cl)C1=O` [epi-4], the IC50 was more than 250 µg/mL in the data set with MCF-7 cells [1]; more than 250 µg/mL with MCF-7 cells [2]; 177 µg/mL (≈ 651 µM) with A431 cells [3]; more than 250 µg/mL with HeLa cells [4]; 153 µg/mL (≈ 563 µM) with 3T3 cells [5]; 145 µg/mL (≈ 534 µM) with 3T3 cells [6]. Further, the IC50 in the data set on HeLa cells [7] was more than 250 µg/mL; with HaCaT cells [8], more than 250 µg/mL; in data set [9], more than 100 µg/mL; in the data set with HaCaT cells [11] it was more than 250 µg/mL; with A431 cells [12] it was 61.7 µg/mL (≈ 227 µM). Besides, the hemolysis in the data set “Hemolysis assay” was less than 2%.
